Reference: patent US11319299B2, “Substituted carboxamides as inhibitors of WDR5 protein-protein binding” (PROPELLON THERAPEUTICS INC., priority 2016, dated 2022)

The molecules below were run against WDR5 (Homo sapiens (Human), UniProt P61964) (assay: Surface Plasmon Resonance (SPR) assay, KD and residence time). Conditions: surface plasmon resonance (SPR) assay; read-out: WDR5 binding affinity (KD).
Format: binding

Kd | SMILES
83 nM | C[C@@H]1CN(c2cc(F)c(-c3cnc(N4CCOCC4)nc3)cc2NC(=O)c2cccc(F)c2F)C[C@H](C)N1C [Example 229, 2,3-difluoro-N-[4-fluoro-5-(2-morpholin-4-ylpyrimidin-5-yl)-2-[(3R,5S)-3,4,5-trimethylpiperazin-1-yl]phenyl]benzamide]
1.36 nM | C[C@@H]1CN(c2cc(F)c(C3=CCCN(C(=O)OC(C)(C)C)C3)cc2NC(=O)c2c[nH]c(=O)cc2C(F)(F)F)C[C@H](C)N1C [Example 322, tert-butyl 5-[2-fluoro-5-[[6-oxo-4-(trifluoromethyl)-1H-pyridine-3-carbonyl]amino]-4-[(3R,5S)-3,4,5-trimethylpiperazin-1-yl]phenyl]-3,6-dihydro-2H-pyridine-1-carboxylate]
70.6 nM | C[C@@H]1CN(c2cc(F)c(-c3cnc(N4CCOCC4)nc3)cc2NC(=O)c2ccc(F)c(F)c2)C[C@H](C)N1C [Example 111, 3,4-difluoro-N-[4-fluoro-5-(2-morpholin-4-ylpyrimidin-5-yl)-2-[(3R,5S)-3,4,5-trimethylpiperazin-1-yl]phenyl]benzamide]
1.17 nM | C[C@@H]1CN(c2cc(F)c(-c3cnc(N4CCOCC4)c(C#N)c3)cc2NC(=O)c2c[nH]c(=O)cc2C(F)(F)F)C[C@H](C)N1C [Example 170, N-[5-(5-cyano-6-morpholin-4-ylpyridin-3-yl)-4-fluoro-2-[(3R,5S)-3,4,5-trimethylpiperazin-1-yl]phenyl]-6-oxo-4-(trifluoromethyl)-1H-pyridine-3-carboxamide]
1.61 nM | CC1CN(c2cc(F)c(-c3cnc(N4CC(C)(C)OC(C)(C)C4)nc3)cc2NC(=O)c2c[nH]c(=O)cc2C(F)(F)F)CCN1C (stereo in doubt) [Example 319, N-[4-fluoro-2-[(3R)-3,4-dimethylpiperazin-1-yl]-5-[2-(2,2,6,6-tetramethylmorpholin-4-yl)pyrimidin-5-yl]phenyl]-6-oxo-4-(trifluoromethyl)-1H-pyridine-3-carboxamide]
5.86 nM | C[C@@H]1CN(c2cc(F)c(-c3cnc(N4CCOCC4)nc3)cc2NC(=O)c2c(Cl)cccc2Cl)C[C@H](C)N1C [Example 139, 2,6-dichloro-N-[4-fluoro-5-(2-morpholin-4-ylpyrimidin-5-yl)-2-[(3R,5S)-3,4,5-trimethylpiperazin-1-yl]phenyl]benzamide]
4.65 nM | Cc1cc(-c2cc(NC(=O)c3c[nH]c(=O)cc3C(F)(F)F)c(N3C[C@@H](C)N(C)[C@@H](C)C3)cc2F)cnn1 [Example 149, N-[4-fluoro-5-(6-methylpyridazin-4-yl)-2-[(3R,5S)-3,4,5-trimethylpiperazin-1-yl]phenyl]-6-oxo-4-(trifluoromethyl)-1H-pyridine-3-carboxamide]
70.2 nM | CC1CN(c2cc(F)c(-c3ccc(N4CCOCC4)cc3)cc2NC(=O)c2cnn(C)c2)CCN1C (stereo in doubt) [Example 122, N-[4-fluoro-5-(4-morpholin-4-ylphenyl)-2-[(3R)-3,4-dimethylpiperazin-1-yl]phenyl]-1-methylpyrazole-4-carboxamide]
1.7 nM | C[C@@H]1CN(c2cc(F)c(-c3ccc(F)nc3)cc2NC(=O)c2c[nH]c(=O)cc2C(F)(F)F)C[C@H](C)N1C [Example 257, N-[4-fluoro-5-(6-fluoropyridin-3-yl)-2-[(3R,5S)-3,4,5-trimethylpiperazin-1-yl]phenyl]-6-oxo-4-(trifluoromethyl)-1H-pyridine-3-carboxamide]
15.6 nM | C[C@@H]1CN(c2cc(F)c(-c3ccc(OCC4CC4)nc3)cc2NC(=O)c2ccc(F)cc2Cl)C[C@H](C)N1C [Example 251, 2-chloro-N-[5-[6-(cyclopropylmethoxy)pyridin-3-yl]-4-fluoro-2-[(3R,5S)-3,4,5-trimethylpiperazin-1-yl]phenyl]-4-fluorobenzamide]
1.4 nM | CC1CN(c2cc(F)c(-c3ccc(N(C)C)nc3)cc2NC(=O)c2c[nH]c(=O)cc2C(F)(F)F)CCN1C (stereo in doubt) [Example 219, N-[5-[6-(dimethylamino)pyridin-3-yl]-4-fluoro-2-[(3R)-3,4-dimethylpiperazin-1-yl]phenyl]-6-oxo-4-(trifluoromethyl)-1H-pyridine-3-carboxamide]
6.87 nM | C[C@@H]1CN(c2cc(F)c(-c3cnc(N4CCOCC4)nc3)cc2NC(=O)c2cn(C)c(=O)cc2C(F)F)C[C@H](C)N1C [Example 342, 4-(difluoromethyl)-N-[4-fluoro-5-(2-morpholin-4-ylpyrimidin-5-yl)-2-[(3R,5S)-3,4,5-trimethylpiperazin-1-yl]phenyl]-1-methyl-6-oxopyridine-3-carboxamide]
3.49 nM | C[C@@H]1CN(c2cc(F)c(C3=CCN(C4CCN(C)CC4)CC3)cc2NC(=O)c2c[nH]c(=O)cc2C(F)(F)F)C[C@H](C)N1C [Example 242, N-[4-fluoro-5-[1-(1-methylpiperidin-4-yl)-3,6-dihydro-2H-pyridin-4-yl]-2-[(3R,5S)-3,4,5-trimethylpiperazin-1-yl]phenyl]-6-oxo-4-(trifluoromethyl)-1H-pyridine-3-carboxamide]

Same assay, conditions: surface plasmon resonance (SPR); read-out: WDR5 binding affinity (KD)

Kd | SMILES
3.18 nM | CC1CN(c2cc(F)c(-c3cccc(N4CCOCC4)n3)cc2NC(=O)c2ccc(F)cc2C(F)(F)F)CCN1C (stereo in doubt) [Example 673, 4-fluoro-N-[4-fluoro-5-(6-morpholin-4-ylpyridin-2-yl)-2-[(3R)-3,4-dimethylpiperazin-1-yl]phenyl]-2-(trifluoromethyl)benzamide]
0.9 nM | C[C@@H]1CN(c2cc(F)c(-c3cc(F)c(C(=O)N[C@@H]4CCOC4)c(F)c3)cc2NC(=O)c2c[nH]c(=O)cc2C(F)(F)F)C[C@H](C)N1C [Example 762, 6-oxo-N-(3′,5′,6-trifluoro-4′-(((R)-tetrahydrofuran-3-yl)carbamoyl)-4-((3S,5R)-3,4,5-trimethylpiperazin-1-yl)-[1,1′-biphenyl]-3-yl)-4-(trifluoromethyl)-1,6-dihydropyridine-3-carboxamide]
23.3 nM | C[C@@H]1CN(c2cc(F)c(-c3cc(C(=O)NC(C)(C)CC(C)(C)C)c(F)cc3F)cc2NC(=O)c2c[nH]c(=O)cc2C(F)F)C[C@H](C)N1C [Example 627, 4-(difluoromethyl)-N-[5-[2,4-difluoro-5-(2,4,4-trimethylpentan-2-ylcarbamoyl)phenyl]-4-fluoro-2-[(3R,5S)-3,4,5-trimethylpiperazin-1-yl]phenyl]-6-oxo-1H-pyridine-3-carboxamide]
1.75 nM | C[C@@H]1CN(c2cc(F)c(-c3nc(C(=O)NCC4CC4)cs3)cc2NC(=O)c2c[nH]c(=O)cc2C(F)(F)F)C[C@H](C)N1C [Example 482, N-(cyclopropylmethyl)-2-[2-fluoro-5-[[6-oxo-4-(trifluoromethyl)-1H-pyridine-3-carbonyl]amino]-4-[(3R,5S)-3,4,5-trimethylpiperazin-1-yl]phenyl]-1,3-thiazole-4-carboxamide]
51.8 nM | C[C@@H]1CN(c2cc(F)c(-c3ncc(CN4CCOCC4)s3)cc2NC(=O)c2cn(C)c(=O)cc2C(F)F)C[C@H](C)N1C [Example 748, 4-(difluoromethyl)-N-[4-fluoro-5-[5-(morpholin-4-ylmethyl)-1,3-thiazol-2-yl]-2-[(3R,5S)-3,4,5-trimethylpiperazin-1-yl]phenyl]-1-methyl-6-oxopyridine-3-carboxamide]
6.75 nM | C[C@@H]1CN(c2cc(F)c(-c3nc(CN4CCOCC4)cs3)cc2NC(=O)c2cn(C)c(=O)cc2C(F)F)C[C@H](C)N1C [Example 741, 4-(difluoromethyl)-N-[4-fluoro-5-[4-(morpholin-4-ylmethyl)-1,3-thiazol-2-yl]-2-[(3R,5S)-3,4,5-trimethylpiperazin-1-yl]phenyl]-1-methyl-6-oxopyridine-3-carboxamide]
2.74 nM | C[C@@H]1CN(c2cc(F)c(C3=CCCN(C(=O)OC4(C)COC4)C3)cc2NC(=O)c2c[nH]c(=O)cc2C(F)(F)F)C[C@H](C)N1C [Example 489, (3-methyloxetan-3-yl) 5-[2-fluoro-5-[[6-oxo-4-(trifluoromethyl)-1H-pyridine-3-carbonyl]amino]-4-[(3R,5S)-3,4,5-trimethylpiperazin-1-yl]phenyl]-3,6-dihydro-2H-pyridine-1-carboxylate]
2.82 nM | CC(C)OC(=O)N1CC=C(c2cc(NC(=O)c3c[nH]c(=O)cc3C(F)F)c(N3CCN(C)C(C)C3)cc2F)CC1 (stereo in doubt) [Example 724, propan-2-yl 4-[5-[[4-(difluoromethyl)-6-oxo-1H-pyridine-3-carbonyl]amino]-2-fluoro-4-[(3R)-3,4-dimethylpiperazin-1-yl]phenyl]-3,6-dihydro-2H-pyridine-1-carboxylate]
5.03 nM | C[C@@H]1CN(c2cc(F)c(-c3csc(C(=O)N(C)CC4CC4)n3)cc2NC(=O)c2cn(C)c(=O)cc2C(F)(F)F)C[C@H](C)N1C [Example 524, N-(cyclopropylmethyl)-4-[2-fluoro-5-[[-methyl-6-oxo-4-(trifluoromethyl)pyridine-3-carbonyl]amino]-4-[(3R,5S)-3,4,5-trimethylpiperazin-1-yl]phenyl]-N-methyl-1,3-thiazole-2-carboxamide]
2.16 nM | CC1CN(c2cc(F)c(C3=CCN(C(=O)OC4CC(F)(F)C4)CC3)cc2NC(=O)c2ccc(F)cc2C(F)(F)F)CCN1C (stereo in doubt) [Example 707, (3,3-difluorocyclobutyl) 4-[2-fluoro-5-[[4-fluoro-2-(trifluoromethyl)benzoyl]amino]-4-[(3R)-3,4-dimethylpiperazin-1-yl]phenyl]-3,6-dihydro-2H-pyridine-1-carboxylate]

Continued, molecule first:

SMILES | Kd
C[C@@H]1CN(c2ccc(-c3cc(NC(=O)c4c[nH]c(=O)cc4C(F)(F)F)c(N4CCN(C)[C@H](C)C4)cc3F)cn2)CCO1 (stereo in doubt) [Example 433, N-[4-fluoro-2-[(3R)-3,4-dimethylpiperazin-1-yl]-5-[6-[(2R)-2-methylmorpholin-4-yl]pyridin-3-yl]phenyl]-6-oxo-4-(trifluoromethyl)-1H-pyridine-3-carboxamide] | 2.84 nM
C[C@@H]1CN(c2cc(F)c(-c3cnc(N4CCN(C5CC5)CC4)nc3)cc2NC(=O)c2ccc(F)cc2C(F)(F)F)C[C@H](C)N1C [Example 454, N-[5-[2-(4-cyclopropylpiperazin-1-yl)pyrimidin-5-yl]-4-fluoro-2-[(3R,5S)-3,4,5-trimethylpiperazin-1-yl]phenyl]-4-fluoro-2-(trifluoromethyl)benzamide] | 4.05 nM
